According to ChEMBL document CHEMBL4418912, “Methods of identifying antagonists of the hTAS2R46 bitter taste receptor” (2014):
Active and inactive are the calls of the source. The rule behind the calls is not given here.

Experiments:
Format in all cases: functional, cell-based
[1] = target: T1, Taste receptor type 2 member 7 (Homo sapiens) (UniProt Q9NYW3); experiment: Antagonist activity at recombinant human N-terminal rat ST3 receptor-fused TAS2R7 expressed in HEK293T cells co-expressing Galpha16gust44 assessed as inhibition of quinine sulfate-induced increase in intracellular calcium level at 100 uM by FLIPR assay
T1 sequence (whole entry): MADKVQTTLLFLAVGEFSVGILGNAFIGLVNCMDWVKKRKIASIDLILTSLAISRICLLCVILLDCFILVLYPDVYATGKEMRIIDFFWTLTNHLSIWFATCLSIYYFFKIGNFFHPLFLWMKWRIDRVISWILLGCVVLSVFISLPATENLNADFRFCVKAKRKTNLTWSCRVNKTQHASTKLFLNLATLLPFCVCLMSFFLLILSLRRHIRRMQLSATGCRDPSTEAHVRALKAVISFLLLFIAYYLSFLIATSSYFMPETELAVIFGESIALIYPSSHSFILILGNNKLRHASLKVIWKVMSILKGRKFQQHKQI

[2] = target: T2, Taste receptor type 2 member 5 (Homo sapiens) (UniProt Q9NYW4); experiment: Antagonist activity at recombinant human N-terminal rat ST3 receptor-fused TAS2R5 expressed in HEK293T cells co-expressing Galpha16gust44 assessed as inhibition of denatonium saccharide-induced intracellular calcium level at 100 uM by FLIPR assay
T2 sequence (whole entry): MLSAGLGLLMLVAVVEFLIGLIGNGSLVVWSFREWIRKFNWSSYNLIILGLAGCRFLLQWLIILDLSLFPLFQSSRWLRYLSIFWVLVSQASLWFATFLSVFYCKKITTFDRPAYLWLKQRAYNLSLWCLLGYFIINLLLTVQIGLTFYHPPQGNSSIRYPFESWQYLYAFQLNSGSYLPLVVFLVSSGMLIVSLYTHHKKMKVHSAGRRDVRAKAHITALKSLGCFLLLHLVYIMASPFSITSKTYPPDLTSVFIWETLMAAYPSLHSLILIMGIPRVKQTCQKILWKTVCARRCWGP

[3] = target: T3, Taste receptor type 2 member 50 (Homo sapiens) (UniProt P59544); experiment: Agonist activity at recombinant human N-terminal rat ST3 receptor-fused TAS2R50 expressed in HEK293T cells co-expressing Galpha16gust44 assessed as increase in intracellular calcium level at 100 uM by FLIPR assay
T3 sequence (whole entry): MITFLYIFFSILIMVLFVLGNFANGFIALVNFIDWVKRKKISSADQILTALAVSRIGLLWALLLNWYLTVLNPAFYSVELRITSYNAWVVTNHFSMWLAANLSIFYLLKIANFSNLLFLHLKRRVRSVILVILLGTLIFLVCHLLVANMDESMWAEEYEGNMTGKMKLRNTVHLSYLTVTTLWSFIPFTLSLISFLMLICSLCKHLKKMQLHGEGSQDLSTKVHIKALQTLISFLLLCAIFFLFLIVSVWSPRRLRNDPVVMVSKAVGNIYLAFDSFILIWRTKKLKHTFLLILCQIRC

[4] = target: T4, Taste receptor type 2 member 30 (Homo sapiens) (UniProt P59541); experiment: Agonist activity at recombinant human N-terminal rat ST3 receptor-fused TAS2R47 expressed in HEK293T cells co-expressing Galpha16gust44 assessed as increase in intracellular calcium level at 100 uM by FLIPR assay
T4 sequence (whole entry): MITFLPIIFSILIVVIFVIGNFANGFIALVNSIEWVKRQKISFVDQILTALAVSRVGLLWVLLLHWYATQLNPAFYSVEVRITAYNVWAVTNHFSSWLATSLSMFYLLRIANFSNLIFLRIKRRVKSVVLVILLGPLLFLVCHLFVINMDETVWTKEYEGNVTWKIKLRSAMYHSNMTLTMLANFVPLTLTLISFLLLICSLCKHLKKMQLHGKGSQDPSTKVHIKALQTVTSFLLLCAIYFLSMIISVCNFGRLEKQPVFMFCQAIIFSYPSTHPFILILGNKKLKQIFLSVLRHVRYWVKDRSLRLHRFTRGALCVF

[5] = target: Taste receptor type 2 member 45 (Homo sapiens) (UniProt P59539); experiment: Agonist activity at recombinant human N-terminal rat ST3 receptor-fused TAS2R45 expressed in HEK293T cells co-expressing Galpha16gust44 assessed as increase in intracellular calcium level at 100 uM by FLIPR assay
[6] = target: T5, Taste receptor type 2 member 1 (Homo sapiens) (UniProt Q9NYW7); experiment: Agonist activity at recombinant human N-terminal rat ST3 receptor-fused TAS2R1 expressed in HEK293T cells co-expressing Galpha16gust44 assessed as increase in intracellular calcium level at 100 uM by FLIPR assay
T5 sequence (whole entry): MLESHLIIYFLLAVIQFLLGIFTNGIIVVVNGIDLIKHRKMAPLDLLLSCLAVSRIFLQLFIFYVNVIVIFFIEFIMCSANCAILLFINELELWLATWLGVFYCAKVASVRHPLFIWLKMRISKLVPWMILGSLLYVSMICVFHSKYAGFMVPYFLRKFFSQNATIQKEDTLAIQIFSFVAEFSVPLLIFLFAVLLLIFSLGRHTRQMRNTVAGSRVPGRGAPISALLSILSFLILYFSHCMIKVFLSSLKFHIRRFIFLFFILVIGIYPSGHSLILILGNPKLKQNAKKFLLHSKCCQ

[7] = target: T6, Taste receptor type 2 member 38 (Homo sapiens) (UniProt P59533); experiment: Agonist activity at recombinant human N-terminal rat ST3 receptor-fused TAS2R38 expressed in HEK293T cells co-expressing Galpha16gust44 assessed as increase in intracellular calcium level at 100 uM by FLIPR assay
T6 sequence (whole entry): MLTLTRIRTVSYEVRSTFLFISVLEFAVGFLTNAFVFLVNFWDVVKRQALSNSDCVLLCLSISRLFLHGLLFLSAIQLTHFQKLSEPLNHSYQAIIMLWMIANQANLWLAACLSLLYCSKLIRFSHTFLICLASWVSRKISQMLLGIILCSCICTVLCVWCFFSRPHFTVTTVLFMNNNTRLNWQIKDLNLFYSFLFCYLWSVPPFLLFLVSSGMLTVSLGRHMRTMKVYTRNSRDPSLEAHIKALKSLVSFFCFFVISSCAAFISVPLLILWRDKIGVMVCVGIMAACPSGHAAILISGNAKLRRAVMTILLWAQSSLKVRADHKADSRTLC

[8] = target: T7, Taste receptor type 2 member 43 (Homo sapiens) (UniProt P59537); experiment: Agonist activity at recombinant human N-terminal rat ST3 receptor-fused TAS2R43 expressed in HEK293T cells co-expressing Galpha16gust44 assessed as increase in intracellular calcium level at 100 uM by FLIPR assay
T7 sequence (whole entry): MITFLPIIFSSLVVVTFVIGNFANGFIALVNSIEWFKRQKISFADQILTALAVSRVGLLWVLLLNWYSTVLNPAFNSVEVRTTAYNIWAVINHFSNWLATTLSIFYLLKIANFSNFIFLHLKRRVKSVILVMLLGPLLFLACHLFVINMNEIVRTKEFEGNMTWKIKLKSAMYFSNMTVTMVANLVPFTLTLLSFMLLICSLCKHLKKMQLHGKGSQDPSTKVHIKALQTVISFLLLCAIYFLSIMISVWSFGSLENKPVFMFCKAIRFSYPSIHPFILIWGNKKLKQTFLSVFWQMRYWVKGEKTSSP

Taste receptor type 2 member 45 (Homo sapiens), sequence (P59539 whole entry, the tested form may be a part): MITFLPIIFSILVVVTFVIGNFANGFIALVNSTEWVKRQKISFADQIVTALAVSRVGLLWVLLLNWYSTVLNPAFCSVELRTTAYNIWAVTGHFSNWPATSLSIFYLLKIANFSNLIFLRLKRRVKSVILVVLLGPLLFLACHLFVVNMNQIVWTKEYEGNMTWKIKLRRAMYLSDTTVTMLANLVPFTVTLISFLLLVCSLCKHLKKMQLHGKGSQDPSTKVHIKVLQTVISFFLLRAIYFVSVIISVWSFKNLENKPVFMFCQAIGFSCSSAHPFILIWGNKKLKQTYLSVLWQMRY

| Compound | inhibition [1] | inhibition [2] | Activity [3] | Activity [4] | Activity [5] | Activity [6] | Activity [7] | Activity [8] |
| --- | --- | --- | --- | --- | --- | --- | --- | --- |
| C/C1=C\C[C@H](O)[C@@H](C)C[C@H]2OC(=O)[C@@H](C)[C@@H]2CC1 | inactive | inactive |  |  |  |  |  |  |
| C/C1=C\C[C@H](O)/C(C)=C/[C@H]2OC(=O)[C@@H](C)[C@@H]2CC1 |  |  | inactive | inactive | inactive | Active | Active | inactive |
